Laboratory results published in US20220153766A1, “CONDENSED TRICYCLIC COMPOUND USED AS KINASE INHIBITOR” (Hangzhou Innogate Pharma Co., Ltd., priority 2019, published 2022).

Legend:
EGFR (T790M/L858R/C797S) = EGFR (T790M/L858R/C797S) (Homo sapiens, UniProt P00533, C797S/L858R/T790M); test: EGFR (T790M/L858R/C797S) kinase activity inhibition, Caliper mobility shift assay; assay type: biochemical; settings: kinase 2.5 nM, ATP 40 μM
Method: The basic method is the same as ALK activity test method 2. The test concentration of the compound starts at 2 μM, and is diluted 5 folds into 6 (7 for individual compounds) concentration points. […] Add 30 μL of stop solution containing EDTA to stop the kinase reaction. Use Caliper EZ Reader to read the conversion rate. Inhibition rate %=(Average positive control conversion rate %−Sample conversion rate %/(Average positive control conversion rate %−Average negative control conversion rate %). Among them: negative control wells represent the conversion rate readings without enzyme activity; positive control wells represent the conversion rate readings of wells without compound inhibition. Take the log value of the concentration as the X-axis, and the percentage inhibition rate on the Y-axis. Log (inhibitor) vs. response—Variable slope of analysis software GraphPad Prism 5 was used to fit the curve to obtain the IC50 value of each compound on the enzyme activity. Calculation formula: Y=Bottom+(Top−Bottom)/(1+10^((Log IC50−X)*HillSlope)).

MAP4K1 (HPK1) = MAP4K1 (HPK1) (Homo sapiens, UniProt Q92918); test: MAP4K1 (HPK1) kinase activity inhibition, Caliper mobility shift assay; assay type: biochemical; settings: kinase 1.25 nM, ATP 10.1 μM
Method: 4. MAP4K1 (HPK1) Kinase Activity Inhibition Experiment: Caliper mobility shift assay was used to detect the inhibitory effect of the compound on MAP4K1 (HPK1) kinase activity. The test concentration of the compound starts at 500 nM, and is diluted 5 folds into 5 concentration points. Use a dispenser Echo 550 to transfer 250 nL 100-fold final concentration of the compound to the target plate 3573, add 10 μL of MAP4K1 (HPK1) kinase solution with a final concentration of 1.25 nM, and incubate for 10 minutes at room temperature (the negative control well contains 10 μL kinase buffer and 250 nL 100% DMSO; the positive control well contains 10 μL kinase solution and 250 nL 100% DMSO). On the kinase MAP4K1 (HPK1), add 15 μL of ATP with a final concentration of 10.1 μM and 3 μM substrate peptide No. 25 mixed solution to react for 120 minutes. Add 30 μL of stop solution containing EDTA to stop the kinase reaction. Use Caliper EZ Reader to read the conversion rate. Inhibition rate %=(Average positive control conversion rate %−Sample conversion rate %/(Average positive control conversion rate %−Average negative control conversion rate %). Among them: negative control wells represent the conversion rate readings without enzyme activity; positive control wells represent the conversion rate readings of wells without compound inhibition. Take the log value of the concentration as the X-axis, and the percentage inhibition rate on the Y-axis. Log (inhibitor) vs. response—Variable slope of analysis software GraphPad Prism 5 was used to fit the curve to obtain the IC50 value of each compound on the enzyme activity. Calculation formula: Y=Bottom+(Top−Bottom)/(1+10 ^((Log IC50−X)*HillSlope)).

[1] = biological target: T1, Ba/F3_EGFR del19/T790M/C797S cells (Homo sapiens, UniProt P00533, T790M/C797S, cells depend on it, form not given); test: Ba/F3_EGFR (del19-T790M-C797S) cell proliferation inhibition, CTG, method 2; assay type: cell-based; settings: 2000 cells/well, 72 h, read-out: Ba/F3_EGFR (del19-T790M-C797S) cell proliferation inhibition (IC50 value) Method 2
Method: Take a small amount of cells and count them with ViCell. 2) Adjust the cell density, inoculate the cells in a 384-well plate at 2000/well, and incubate in a 37° C., 5% CO2 incubator for 4 hours. 3) Set up the program of Tecan HP D300, add the compound to the well plate. The maximum initial concentration of the compound is 1-4 μM, 3 folds dilution, 9 concentrations, and the DMSO content in each well is unified to 0.2%.
CTG method detection: 1) Take out the CTG reagent and cell plate and equilibrate at room temperature for 30 min, add 25 μL CTG to each well, shake at medium speed for 2 min, centrifuge at 1000 rpm for 1 minutes, and stand still at room temperature for 10 minutes. 2) Envision instrument reads the chemiluminescence signal value.
Data analysis: IC50 results are analyzed by IDBS's XL-fit 5.0 software.

[2] = Pharmacokinetic study in rats after intragastrical administration; assay type: in vivo; settings: male, rat, plasma, po, SD rats, 3 mg/kg; for AUC(0-t): read-out: AUC0-24 h
Method: Example 55: Pharmacokinetic Study in Rats
Instruments: XEVO TQ-S LC/MS instrument produced by Waters. All measurement data is collected and processed by Masslynx V4.1 software, and the data is calculated and processed by Microsoft Excel. Using WinNonLin 8.0 software, the statistical moment method was used to calculate the pharmacokinetic parameters. Mainly include kinetic parameters Tmax, T1/2, Cmax, AUClast etc. […] Injection volume: 5 μL.
Animals: 3 male SD rats with a weight range of 200-220 g. After purchase, they will be kept in the laboratory of the Experimental Animal Center for 2 days and then used. They will be fasted for 12 hours predose and 4 hours after dosing. Drinking water is free during the test. After the rats were gavage, blood samples were taken according to the established time point.
Solvent: 0.5% Methylcellulose (aqueous solution containing 0.4% Tween 80 and 1% ethanol). Preparation of the solution for intragastrical administration: accurately weigh the compound, add it to the solvent, and ultrasonically at room temperature for 5 minutes to completely dissolve the drug, and prepare a 0.3 mg/ml medicinal solution.
Pharmaceutical samples: representative compounds of the structure shown in the patented formula (I) of the present invention, generally, multiple samples with similar structures (with a molecular weight difference of more than 2 units) are taken, accurately weighed, and administered together (cassette PK). In this way, multiple compounds can be screened at the same time and their oral absorption rates can be compared. A single administration was also used to study the pharmacokinetics of the drug sample in rats.
After intragastrical administration, blood was taken from the orbit at 0.25, 0.5, 1, 2, 4, 9, 12 and 24 hours, and placed in a plastic centrifuge tube pretreated with sodium heparin. After centrifugation, the supernatant plasma was used for LC-MS/MS analysis.
Accurately weigh the compounds to prepare different concentrations, perform quantitative analysis on mass spectrometry to establish a standard curve, and then test the concentration of the above-mentioned compound in the plasma to obtain the compound concentration at different time points. All measurement data are collected and processed by relevant software, and the statistical moment method is used to calculate the pharmacokinetic parameters (mainly including kinetic parameters Tmax, T1/2, Cmax, AUClast etc). The results are as follows:
Table 7: Pharmacokinetic Parameters of the Compounds after Intragastrical Administration in SD Rats

[3] = biological target: T1, Ba/F3_EGFR del19/T790M/C797S cells; test: Ba/F3_EGFR (del19-T790M-C797S) cell proliferation inhibition, CTG, method 1; assay type: cell-based
Method: The cells were cultured in a 37° C., 5% CO2 incubator.
Cell plating and compound treatment: 1) Cells are routinely cultured until the cell saturation is 80%-90%, and when the number reaches the requirement, the cells are collected. 2) Resuspend in the corresponding fresh medium, take a small amount of cells to count, and prepare a cell suspension with a suitable density. 3) Inoculate the cell suspension into a 384-well plate at 700 cells/well, 30 μL per well. 4) Use Echo to add the compound to the corresponding cell well. The maximum starting concentration of the compound is 1-10 μM, 3 folds dilution, 8 concentrations.
CTG method detection: 1) Add 30 μL of CTG reagent (CelltiterGlo kit) to each well, and let it stand for 30 minutes at 37° C. and 5% CO2 in the dark. 2) Use Envision instrument to read the chemiluminescence signal value.
Data analysis: IC50 results are analyzed by GraphPad Prism 6 software. […] X: log value of compound concentration; Y: inhibition rate (% inhibition); inhibition rate (% inhibition)=(blank control well reading−compound well reading)/(blank control well reading−positive control reading)×100.

[4] = 700 cells/well, 72 h, read-out: Ba/F3_EGFR (del19-T790M-C797S) cell proliferation inhibition (IC50 value) Method 1

T1 sequence (P00533 with tags, fused parts or gaps DEL746-750/T790M/C797S, form open): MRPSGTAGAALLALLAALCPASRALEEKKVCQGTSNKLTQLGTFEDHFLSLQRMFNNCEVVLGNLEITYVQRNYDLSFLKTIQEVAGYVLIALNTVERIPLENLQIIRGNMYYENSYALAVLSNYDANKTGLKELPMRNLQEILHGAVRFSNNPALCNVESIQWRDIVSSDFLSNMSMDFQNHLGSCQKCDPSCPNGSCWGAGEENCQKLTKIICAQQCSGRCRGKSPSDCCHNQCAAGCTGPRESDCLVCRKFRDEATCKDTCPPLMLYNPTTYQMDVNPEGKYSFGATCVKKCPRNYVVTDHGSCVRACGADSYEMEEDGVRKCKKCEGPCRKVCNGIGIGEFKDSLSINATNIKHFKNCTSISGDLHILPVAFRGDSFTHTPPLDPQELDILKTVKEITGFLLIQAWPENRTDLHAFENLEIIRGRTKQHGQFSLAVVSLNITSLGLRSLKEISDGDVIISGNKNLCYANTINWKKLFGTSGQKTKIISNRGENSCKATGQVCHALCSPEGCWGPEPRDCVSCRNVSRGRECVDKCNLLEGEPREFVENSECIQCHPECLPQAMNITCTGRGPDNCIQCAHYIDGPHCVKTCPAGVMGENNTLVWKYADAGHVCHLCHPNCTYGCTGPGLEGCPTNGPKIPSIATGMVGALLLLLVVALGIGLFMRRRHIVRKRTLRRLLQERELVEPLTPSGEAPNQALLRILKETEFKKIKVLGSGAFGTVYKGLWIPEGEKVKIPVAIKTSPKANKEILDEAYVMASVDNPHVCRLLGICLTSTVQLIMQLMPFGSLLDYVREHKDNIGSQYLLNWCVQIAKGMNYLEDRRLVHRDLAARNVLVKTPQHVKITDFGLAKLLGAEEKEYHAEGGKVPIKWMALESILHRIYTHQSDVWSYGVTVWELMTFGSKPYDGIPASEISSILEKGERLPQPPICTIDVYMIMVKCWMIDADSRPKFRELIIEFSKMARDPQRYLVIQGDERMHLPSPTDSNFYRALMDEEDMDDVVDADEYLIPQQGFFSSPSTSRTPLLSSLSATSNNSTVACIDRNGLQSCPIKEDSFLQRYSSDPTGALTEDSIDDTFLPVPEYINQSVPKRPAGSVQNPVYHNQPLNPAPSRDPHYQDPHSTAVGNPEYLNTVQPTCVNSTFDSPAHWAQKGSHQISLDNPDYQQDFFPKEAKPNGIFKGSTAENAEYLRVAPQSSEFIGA
Chain of MAP4K1 (HPK1) (Q92918 whole entry): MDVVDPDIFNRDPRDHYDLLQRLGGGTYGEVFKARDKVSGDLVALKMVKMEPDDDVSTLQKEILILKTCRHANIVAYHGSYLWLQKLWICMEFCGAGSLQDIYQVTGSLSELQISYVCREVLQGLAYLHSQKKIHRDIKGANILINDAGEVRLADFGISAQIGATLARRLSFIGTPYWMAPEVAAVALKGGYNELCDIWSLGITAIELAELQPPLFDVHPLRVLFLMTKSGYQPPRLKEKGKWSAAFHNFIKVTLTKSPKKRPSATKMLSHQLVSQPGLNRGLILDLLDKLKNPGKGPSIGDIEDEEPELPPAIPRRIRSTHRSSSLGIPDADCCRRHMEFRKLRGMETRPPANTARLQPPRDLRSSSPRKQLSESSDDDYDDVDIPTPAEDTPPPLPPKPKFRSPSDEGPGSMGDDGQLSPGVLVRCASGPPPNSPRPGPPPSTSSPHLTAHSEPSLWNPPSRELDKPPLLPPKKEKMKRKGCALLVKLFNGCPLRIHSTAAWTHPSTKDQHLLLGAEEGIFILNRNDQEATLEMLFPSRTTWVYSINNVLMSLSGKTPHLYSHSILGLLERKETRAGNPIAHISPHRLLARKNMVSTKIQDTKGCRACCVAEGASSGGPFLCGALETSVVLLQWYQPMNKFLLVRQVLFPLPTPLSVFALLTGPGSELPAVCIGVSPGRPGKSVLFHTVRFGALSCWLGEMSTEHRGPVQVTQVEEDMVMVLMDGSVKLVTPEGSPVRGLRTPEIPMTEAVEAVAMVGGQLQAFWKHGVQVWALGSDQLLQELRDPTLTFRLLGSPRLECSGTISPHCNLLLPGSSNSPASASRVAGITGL
Chain of EGFR (T790M/L858R/C797S) (P00533 25-1210 T790M/C797S/L858R): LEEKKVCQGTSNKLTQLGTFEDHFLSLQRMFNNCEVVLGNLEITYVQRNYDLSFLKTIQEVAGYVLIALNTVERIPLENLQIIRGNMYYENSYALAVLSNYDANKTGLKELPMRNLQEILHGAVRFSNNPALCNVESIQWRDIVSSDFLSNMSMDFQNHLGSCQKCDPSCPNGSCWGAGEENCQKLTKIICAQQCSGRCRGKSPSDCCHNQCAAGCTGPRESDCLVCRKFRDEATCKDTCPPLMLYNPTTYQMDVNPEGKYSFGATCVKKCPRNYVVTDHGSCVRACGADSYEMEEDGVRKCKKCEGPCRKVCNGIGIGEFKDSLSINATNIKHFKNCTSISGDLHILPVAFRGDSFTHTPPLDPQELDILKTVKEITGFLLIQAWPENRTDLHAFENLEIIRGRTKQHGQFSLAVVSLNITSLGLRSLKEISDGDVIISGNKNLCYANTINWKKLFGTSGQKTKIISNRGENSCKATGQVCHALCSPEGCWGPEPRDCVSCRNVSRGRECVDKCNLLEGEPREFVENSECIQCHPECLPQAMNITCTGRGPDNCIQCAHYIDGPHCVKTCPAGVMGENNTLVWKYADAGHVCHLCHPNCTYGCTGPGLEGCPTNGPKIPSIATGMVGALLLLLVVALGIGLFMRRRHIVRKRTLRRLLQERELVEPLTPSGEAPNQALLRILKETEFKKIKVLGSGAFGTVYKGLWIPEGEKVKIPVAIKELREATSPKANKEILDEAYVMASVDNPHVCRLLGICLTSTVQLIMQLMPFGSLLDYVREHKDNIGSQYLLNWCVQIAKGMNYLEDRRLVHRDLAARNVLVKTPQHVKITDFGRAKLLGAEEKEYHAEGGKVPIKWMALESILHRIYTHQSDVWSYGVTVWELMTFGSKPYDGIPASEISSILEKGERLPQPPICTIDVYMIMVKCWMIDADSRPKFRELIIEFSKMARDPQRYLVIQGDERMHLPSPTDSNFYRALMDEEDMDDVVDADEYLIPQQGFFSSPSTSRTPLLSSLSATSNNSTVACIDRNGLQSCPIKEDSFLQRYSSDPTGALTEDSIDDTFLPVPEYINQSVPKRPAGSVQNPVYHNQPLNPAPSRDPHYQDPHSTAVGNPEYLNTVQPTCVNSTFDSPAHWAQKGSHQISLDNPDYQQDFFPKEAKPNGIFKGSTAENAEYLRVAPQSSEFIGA

With `CN1CCC(N2CCN3c4c(F)cc(Nc5ncc(Cl)c(Nc6ccccc6P(C)(C)=O)n5)cc4OC[C@@H]3C2)CC1` [Compound 35S] the IC50 (EGFR (T790M/L858R/C797S)) was less than 0.003 µM, the IC50 (MAP4K1 (HPK1)) was no more than 0.001 µM and the GI50 [1] was 0.02 to 0.1 µM. The Cmax [2] was 0.015 µg/mL, the Tmax [2] was 4.33 h and the half-life [2] was 3.97 h. For the same compound, the AUC(0-t) [2] was 0.179 µg·h/mL.
Work on `CP(C)(=O)c1ccccc1Nc1nc(Nc2ccc3c(c2)OC[C@H]2CN(C4CCNCC4)CCN32)ncc1Cl` [Compound 21R] yielded an IC50 (EGFR (T790M/L858R/C797S)) of less than 0.003 µM, an IC50 (MAP4K1 (HPK1)) of no more than 0.001 µM and a GI50 [3, 4] greater than 0.2 µM.
In the case of `COc1cc(N2CCC(N3CCN(C)CC3)CC2)ccc1Nc1ncc(Cl)c(Nc2ccccc2P(C)(C)=O)n1` [Brigatinib, reference compound], the IC50 (MAP4K1 (HPK1)) is reported as 0.01 to 0.1 µM, the GI50 ([3]; read-out: Ba/F3_EGFR (del19-T790M-C797S) cell proliferation inhibition (IC50 value) Method 1, 700 cells/well, 72 h) is reported as 0.1 to 0.2 µM and the GI50 [1] is reported as greater than 0.2 µM.
In the case of `Cc1cc(Nc2ncc(Cl)c(Nc3ccccc3P(C)(C)=O)n2)cc2c1N1CCN(C3CCN(C4CC4)CC3)C[C@@H]1CO2` [Compound 33R], the IC50 (EGFR (T790M/L858R/C797S)) is reported as less than 0.003 µM, the IC50 (MAP4K1 (HPK1)) is reported as no more than 0.001 µM and the GI50 [1] is reported as 0.02 to 0.1 µM. The Cmax [2] was 0.12 µg/mL, the Tmax [2] was 7.33 h and the half-life [2] was 3.88 h. The AUC(0-t) [2] was 1.78 µg·h/mL.
`Cc1cc(Nc2ncc(Cl)c(Nc3ccccc3P(C)(C)=O)n2)cc2c1N1CCN(C3CN(C)C3)C[C@H]1CO2` [Compound 34S] showed an IC50 (EGFR (T790M/L858R/C797S)) of less than 0.003 µM, an IC50 (MAP4K1 (HPK1)) of no more than 0.001 µM and a GI50 [1] of less than 0.02 µM.
With `C=CC(=O)Nc1cc(Nc2ncc(Cl)c(Nc3ccccc3P(C)(C)=O)n2)cc2c1N1CCN(C)C[C@@H]1CO2` [Compound 29R] the IC50 (EGFR (T790M/L858R/C797S)) was 0.003 to 0.015 µM, the IC50 (MAP4K1 (HPK1)) was no more than 0.001 µM and the GI50 [3, 4] was 0.02 to 0.1 µM.
